The values below come from paper PMC11460631, “Inhibition of transient receptor potential vanilloid 3 channels by antimalarial hydroxychloroquine alleviates TRPV3-dependent dermatitis” (The Journal of Biological Chemistry, 2024).

The assay addresses T1, TRPV3 mutant W692C (Homo sapiens, UniProt Q8NET8, W692C).
T1 construct: YFP or GFP; expressed in transfected cells; host or cells: HEK293T
T1 sequence (Q8NET8 1-790 W692C): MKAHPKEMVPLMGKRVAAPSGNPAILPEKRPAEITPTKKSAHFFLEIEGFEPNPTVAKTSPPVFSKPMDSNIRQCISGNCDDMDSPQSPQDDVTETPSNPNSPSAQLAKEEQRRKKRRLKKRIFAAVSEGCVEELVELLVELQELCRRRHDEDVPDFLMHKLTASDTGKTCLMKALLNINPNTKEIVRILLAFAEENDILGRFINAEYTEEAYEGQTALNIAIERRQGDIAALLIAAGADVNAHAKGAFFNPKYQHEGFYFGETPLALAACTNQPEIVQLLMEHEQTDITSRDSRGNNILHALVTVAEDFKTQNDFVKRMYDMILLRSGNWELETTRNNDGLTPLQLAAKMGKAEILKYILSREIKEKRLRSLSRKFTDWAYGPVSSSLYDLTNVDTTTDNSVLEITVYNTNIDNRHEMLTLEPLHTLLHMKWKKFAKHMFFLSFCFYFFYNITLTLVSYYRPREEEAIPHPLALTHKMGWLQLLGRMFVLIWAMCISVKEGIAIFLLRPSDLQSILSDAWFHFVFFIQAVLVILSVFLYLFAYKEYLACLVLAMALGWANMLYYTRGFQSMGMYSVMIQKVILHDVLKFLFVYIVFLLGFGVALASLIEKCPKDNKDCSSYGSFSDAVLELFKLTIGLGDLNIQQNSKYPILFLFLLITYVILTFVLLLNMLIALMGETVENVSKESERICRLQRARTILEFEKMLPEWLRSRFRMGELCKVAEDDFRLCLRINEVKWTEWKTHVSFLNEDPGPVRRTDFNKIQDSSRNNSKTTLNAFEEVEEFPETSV
Nature of the assay: Whole-cell recording of gain-of-function TRPV3 mutant W692C. In kind it is cell-based. The note with it: concentration gradients of HCQ, ± 80 mV. Here is the method:
To test the effect of HCQ on carvacrol-induced skin inflammation, we evaluated the inhibitory effect of HCQ on TRPV3 activated by carvacrol in vitro.
Figure 5 HCQ can attenuate mice back skin lesions induced by TRPV3 agonist carvacrol.A, representative whole-cell recording of TRPV3 in response to 1 mM carvacrol (Car), the mixture of 1 mM Car, and concentration gradients of HCQ with the holding potential of ± 80 mV. B, concentration–response curve of Car and HCQ on TRPV3 channels fitted by Hill equation. Data were shown as mean ± SEM (n = 6 cells). C, representative whole-cell recording of W692C mutants in response to concentration gradients of HCQ with the holding potential of ± 80 mV. D, concentration–response curve of HCQ on W692C mutants fitted by Hill equation. Data were shown as mean ± SEM (n = 4 cells). E, paradigm of generation of AD-like mice model induced by Car. […] A 200 μl volume of drug was applied to each mouse. Green lines indicate the thickness of the epidermis. Upper panel, the scale bar represents 2 cm; bottom panel, scale bar represents 100 μm. G–I, quantification of thickness (G), erythema (H), dryness, and scaling (I), (n = 6 mice, mean ± SEM), thickness: F (3, 20) = 20.68, p < 0.0001; erythema: F (3, 20) = 55.10, p < 0.0001; dryness and scaling: F (3, 20) = 39.61, p < 0.0001 by one-way ANOVA followed using Tukey's post hoc test. […]

Molecules are shown by their SMILES.

As to `CCN(CCO)CCCC(C)Nc1ccnc2cc(Cl)ccc12` (stereo not shown) [HCQ, hydroxychloroquine], the “effect on activity of gain-of-function TRPV3 mutant W692C” value is “inhibited”.
